In ChEMBL document CHEMBL1201862, “PubChem BioAssay data set” (2004):
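1) Cells in 96-well plates. 2) Compound, 48 h, 5 concentrations. 3) Linear interpolation between surrounding doses. 4) Unreached endpoint = highest concentration. The concentration for 50% growth inhibition is given as GI50.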 Calls of active or inactive are those of the source. Rule as the data show it: active = GI50 up to about 1.1 µM and inactive = higher.

Tests used:
Assay in all cases: inhibition of tumour cell growth, NCI panel, 48 h
HCT-15 = system: HCT-15
OVCAR-8 = system: OVCAR-8
NCI-H460 = system: NCI-H460
UACC-62 = system: UACC-62
SF-268 = system: SF-268
UACC-257 = system: UACC-257
K562 = system: K562
SK-OV-3 = system: SK-OV-3
786-0 = system: 786-0
SF-295 = system: SF-295
A549 = system: A549
SK-MEL-5 = system: SK-MEL-5
CCRF-CEM = system: CCRF-CEM
LOX IMVI = system: LOX IMVI
TK-10 = system: TK-10
RXF 393 = system: RXF 393
M14 = system: M14
HL-60 = system: HL-60

Row | Structure (SMILES) | GI50 (HCT-15) | GI50 (OVCAR-8) | GI50 (NCI-H460) | GI50 (UACC-62) | GI50 (SF-268) | GI50 (UACC-257) | GI50 (K562) | GI50 (SK-OV-3) | GI50 (786-0) | GI50 (SF-295) | GI50 (A549) | GI50 (SK-MEL-5) | GI50 (CCRF-CEM) | GI50 (LOX IMVI) | GI50 (TK-10) | GI50 (RXF 393) | GI50 (M14) | GI50 (HL-60)
1 | NC(=O)CCC(NC(=O)C(F)(F)F)C(=O)O (configuration not stated) | > 100 µM | > 100 µM (inactive) | > 100 µM (inactive) | > 100 µM (inactive) | > 100 µM (inactive) | > 100 µM (inactive) | > 100 µM (inactive) | > 100 µM (inactive) | > 100 µM (inactive) | > 100 µM (inactive) | > 100 µM (inactive) | > 100 µM (inactive) | > 100 µM (inactive) | > 100 µM (inactive) | > 100 µM (inactive) | > 100 µM (inactive) | > 100 µM (inactive) | –
2 | c1cnc2c(c1)-n1cccc1C1(CCSCC1)NN2 | 80.2 µM | > 100 µM (inactive) | 83.4 µM (inactive) | – | > 100 µM (inactive) | 90.2 µM (inactive) | 89.5 µM (inactive) | – | > 100 µM (inactive) | > 100 µM (inactive) | > 100 µM (inactive) | > 100 µM (inactive) | > 100 µM (inactive) | 68.7 µM (inactive) | 42.6 µM (inactive) | – | > 100 µM (inactive) | 39.6 µM (inactive)
3 | CCCCCCCCCCCCCC(=O)NCO | > 100 µM | > 100 µM (inactive) | > 100 µM (inactive) | > 100 µM (inactive) | > 100 µM (inactive) | > 100 µM (inactive) | – | > 100 µM (inactive) | > 100 µM (inactive) | > 100 µM (inactive) | > 100 µM (inactive) | > 100 µM (inactive) | > 100 µM (inactive) | > 100 µM (inactive) | > 100 µM (inactive) | > 100 µM (inactive) | > 100 µM (inactive) | > 100 µM (inactive)
4 | COc1ccc(N2C(=O)C3c4[nH]c5ccccc5c4C4CC(C)(C)CC(C)(C)C4C3C2=O)cc1 (configuration not stated) | 30.2 µM | 3.2 µM (inactive) | – | 14.4 µM (inactive) | 16.4 µM (inactive) | 19.4 µM (inactive) | 44.5 µM (inactive) | 17.3 µM (inactive) | 12.9 µM (inactive) | 8.05 µM (inactive) | 13.2 µM (inactive) | 19.4 µM (inactive) | 69.7 µM (inactive) | – | – | 12.8 µM (inactive) | 14.3 µM (inactive) | 42.5 µM (inactive)
5 | CC/C=C\C/C=C\C1CC(=O)NCCCNCCCCN1 (configuration not stated) | – | > 100 µM (inactive) | > 100 µM (inactive) | – | > 100 µM (inactive) | > 100 µM (inactive) | – | – | > 100 µM (inactive) | > 100 µM (inactive) | > 100 µM (inactive) | > 100 µM (inactive) | – | > 100 µM (inactive) | > 100 µM (inactive) | 4.83 µM (inactive) | 48 µM (inactive) | > 100 µM (inactive)
6 | COC(=O)C1CCc2nnc(-c3cccnc3)n21 (configuration not stated) | > 100 µM | > 100 µM (inactive) | > 100 µM (inactive) | > 100 µM (inactive) | > 100 µM (inactive) | > 100 µM (inactive) | > 100 µM (inactive) | > 100 µM (inactive) | > 100 µM (inactive) | – | > 100 µM (inactive) | > 100 µM (inactive) | > 100 µM (inactive) | – | > 100 µM (inactive) | > 100 µM (inactive) | > 100 µM (inactive) | > 100 µM (inactive)
7 | CC(=O)Nc1ccc(S(=O)(=O)N/N=C(\C)CN2C(=O)c3ccccc3C2=O)cc1 | > 100 µM | > 100 µM (inactive) | > 100 µM (inactive) | > 100 µM (inactive) | – | > 100 µM (inactive) | > 100 µM (inactive) | > 100 µM (inactive) | > 100 µM (inactive) | > 100 µM (inactive) | > 100 µM (inactive) | > 100 µM (inactive) | > 100 µM (inactive) | – | > 100 µM (inactive) | – | > 100 µM (inactive) | > 100 µM (inactive)
8 | Cc1ccc(NC(=O)CCCC(=O)CC(=O)c2ccc(Br)cc2)cc1 | > 100 µM | > 100 µM (inactive) | > 100 µM (inactive) | > 100 µM (inactive) | > 100 µM (inactive) | > 100 µM (inactive) | > 100 µM (inactive) | > 100 µM (inactive) | > 100 µM (inactive) | > 100 µM (inactive) | > 100 µM (inactive) | > 100 µM (inactive) | > 100 µM (inactive) | > 100 µM (inactive) | > 100 µM (inactive) | > 100 µM (inactive) | > 100 µM (inactive) | –
9 | COC(=O)CC(NC(=O)OCc1ccccc1)C(C(=O)OCc1ccccc1)C(C)(OC)OC (configuration not stated) | 32.1 µM | 19.5 µM (inactive) | 31.7 µM (inactive) | 10.5 µM (inactive) | 39.9 µM (inactive) | 23.7 µM (inactive) | 10.6 µM (inactive) | – | 33.3 µM (inactive) | 24.6 µM (inactive) | 17.3 µM (inactive) | 12.4 µM (inactive) | 13 µM (inactive) | 16.6 µM (inactive) | 39.2 µM (inactive) | 16.8 µM (inactive) | 33.6 µM (inactive) | 15.1 µM (inactive)
10 | CCCCCCCCCCCCCC(=O)OCC(C[As](=O)(O)O)OC(=O)CCCCCCCCCCCCC (configuration not stated) | 69.3 µM | > 100 µM (inactive) | > 100 µM (inactive) | > 100 µM (inactive) | > 100 µM (inactive) | > 100 µM (inactive) | > 100 µM (inactive) | > 100 µM (inactive) | > 100 µM (inactive) | – | > 100 µM (inactive) | > 100 µM (inactive) | > 100 µM (inactive) | – | > 100 µM (inactive) | 35.3 µM (inactive) | > 100 µM (inactive) | –
11 | O=C1C=C(Nc2ccc(Cl)cc2Cl)c2ccccc2C1=O | 29.5 µM | 80 µM (inactive) | 26.1 µM (inactive) | 16.5 µM (inactive) | > 100 µM (inactive) | 35 µM (inactive) | 31.3 µM (inactive) | 99.1 µM (inactive) | 78.5 µM (inactive) | 53.5 µM (inactive) | 28.5 µM (inactive) | – | 30.8 µM (inactive) | – | 24.7 µM (inactive) | 38.3 µM (inactive) | 21.3 µM (inactive) | 28.7 µM (inactive)
12 | COC(=O)C(Br)C1CCc2ccccc21 (configuration not stated) | > 100 µM | > 100 µM (inactive) | > 100 µM (inactive) | > 100 µM (inactive) | > 100 µM (inactive) | > 100 µM (inactive) | 52.7 µM (inactive) | > 100 µM (inactive) | > 100 µM (inactive) | 52.6 µM (inactive) | > 100 µM (inactive) | > 100 µM (inactive) | 48.1 µM (inactive) | > 100 µM (inactive) | > 100 µM (inactive) | – | > 100 µM (inactive) | 26.5 µM (inactive)
13 | CC(C)C1=CC(=O)C(C)(C2=NC(C)(C)CO2)c2ccccc21 (configuration not stated) | > 100 µM | > 100 µM (inactive) | > 100 µM (inactive) | > 100 µM (inactive) | > 100 µM (inactive) | 63.8 µM (inactive) | 50.4 µM (inactive) | 88.5 µM (inactive) | > 100 µM (inactive) | > 100 µM (inactive) | > 100 µM (inactive) | > 100 µM (inactive) | > 100 µM (inactive) | – | > 100 µM (inactive) | > 100 µM (inactive) | > 100 µM (inactive) | > 100 µM (inactive)
